Data as given in patent US8192962B2, “Processes for detecting toxic substances” (Daikin Industries, Ltd., priority 2001, dated 2012).

Tested on: Metabolism protein genes
Assay: DNA chip mRNA expression in yeast, metabolism protein genes (Table 7)
Format: cell-based, Saccharomyces cerevisiae S288C
Method: Yeast (Saccharomyces cerevisiae S288C (α SUC2mal mel gap2 CUP1)) were incubated at 25° C. on YPD medium (yeast extract 1%, polypepton 2%, glucose 2%). One of toxic chemical substances was added to the cells at logarithmic growth phase, and the cells were further incubated for two hours. Cells were cultured without any chemical substance in the same condition, and were used as control. Concentrations of the chemical substances were defined to inhibit the growth of the yeast but not lead to death.
After completion of the incubation, the culture was centrifuged to collect the cells. To the cells, sodium acetate buffer (50 mM sodium acetate, 10 mM EDTA, 1% SDS) was added, and the mixture was shaken at 65° C. for five minutes, followed by returning to room temperature, and obtaining the supernatant, of which the procedures were repeated two times. To the supernatant, ½ amount of a solution of phenol/chloroform was added, and the mixture was centrifuged to give a supernatant, which was added with an equal amount of chloroform, and the mixture was centrifuged to give a supernatant. To the supernatant, an equal amount of isopropanol containing 0.3 M sodium acetate was added, and the mixture was allowed to stand at room temperature for 30 minutes, after which the mixture was centrifuged to give a sediment of the whole RNAs. Seventy % ethanol was added to the sediment, and the mixture was again centrifuged to give a sediment, which was then dried and dissolved in water. mRNA was isolated from the whole RNAs as followings. In view of the fact that a poly A chain is attached to the 3′ terminus of mRNA, a polynucleotide having a poly T structure which was immobilized on the surface of latex beads was used to trap the mRNA, and then the mRNA was washed and eluted with spine column (Oligotex-dT30<Super>mRNA Purification Kit, Takara). Reverse transcription of the mRNA was conducted with a reverse transcriptase (Super Script II Reverse Transcriptase; catalogue No. 18064-014, GibcoBRL) using fluorescence-labeled nucleotides to give cDNAs that were introduced with Cy3-dUTP or Cy5-dUTP during the reverse transcription.
The labeled cDNAs were dissolved in TE buffer (10mM Tris-HCl/1 mM EDTA, pH8.0), and the solution was dropped on the DNA chip containing the whole genes of yeast (DNA Chip Research Inc. Japan) so that the cDNAs were hybridized on the DNA chip at 65° C. for over 12 hours. The fluoresces intensity of the DNA chip was read with a scanner, and the ratio relative to the fluorescence intensity resulting from the absence of chemical substance was estimated as the following, which is shown in Tables 1 to 9: […]

## CCCCCCCCCCCCOS(=O)(=O)[O-].[Na+] [(18), sodium lauryl sulfate]
Yeast gene YAL012W
  The level of expressed mRNA in the presence of chemical substance/The level of expressed mRNA in the absence of chemical substance: 0.8
Yeast gene YAL038W
  The level of expressed mRNA in the presence of chemical substance/The level of expressed mRNA in the absence of chemical substance: 1.0
Yeast gene YBR003W
  level of expressed mRNA in the presence/in the absence of chemical substance: 1.3
Yeast gene YBR011C
  level of expressed mRNA in the presence/in the absence of chemical substance: 1.1
Yeast gene YBR020W
  level of expressed mRNA in the presence/in the absence of chemical substance: 0.9
Yeast gene YBR023C
  The level of expressed mRNA in the presence of chemical substance/The level of expressed mRNA in the absence of chemical substance: 0.9
Yeast gene YBR029C
  The level of expressed mRNA in the presence of chemical substance/The level of expressed mRNA in the absence of chemical substance: 0.8
Yeast gene YBR183W
  The level of expressed mRNA in the presence of chemical substance/The level of expressed mRNA in the absence of chemical substance: 2.4
Yeast gene YBR222C
  The level of expressed mRNA in the presence of chemical substance/The level of expressed mRNA in the absence of chemical substance: 0.9
Yeast gene YBR256C
  The level of expressed mRNA in the presence of chemical substance/The level of expressed mRNA in the absence of chemical substance: 3.3
Yeast gene YCL009C
  The level of expressed mRNA in the presence of chemical substance/The level of expressed mRNA in the absence of chemical substance: 0.8
Yeast gene YCL064C
  The level of expressed mRNA in the presence of chemical substance/The level of expressed mRNA in the absence of chemical substance: 0.3
Yeast gene YCR010C
  level of expressed mRNA in the presence/in the absence of chemical substance: 1.5
Yeast gene YCR034W
  level of expressed mRNA in the presence/in the absence of chemical substance: 0.7
Yeast gene YCR048W
  The level of expressed mRNA in the presence of chemical substance/The level of expressed mRNA in the absence of chemical substance: 0.8
Yeast gene YCR098C
  The level of expressed mRNA in the presence of chemical substance/The level of expressed mRNA in the absence of chemical substance: 1.6
Yeast gene YDL174C
  The level of expressed mRNA in the presence of chemical substance/The level of expressed mRNA in the absence of chemical substance: 4.0
Yeast gene YDR019C
  The level of expressed mRNA in the presence of chemical substance/The level of expressed mRNA in the absence of chemical substance: 1.6
Yeast gene YDR050C
  level of expressed mRNA in the presence/in the absence of chemical substance: 2.3
Yeast gene YDR073W
  level of expressed mRNA in the presence/in the absence of chemical substance: 2.3
Yeast gene YDR123C
  level of expressed mRNA in the presence/in the absence of chemical substance: 1.0
Yeast gene YDR178W
  level of expressed mRNA in the presence/in the absence of chemical substance: 2.3
Yeast gene YDR277C
  level of expressed mRNA in the presence/in the absence of chemical substance: 1.7
Yeast gene YDR284C
  level of expressed mRNA in the presence/in the absence of chemical substance: 1.5
Yeast gene YDR345C
  level of expressed mRNA in the presence/in the absence of chemical substance: 1.8
Yeast gene YDR380W
  The level of expressed mRNA in the presence of chemical substance/The level of expressed mRNA in the absence of chemical substance: 0.8
Yeast gene YDR400W
  level of expressed mRNA in the presence/in the absence of chemical substance: 0.8
Yeast gene YDR408C
  level of expressed mRNA in the presence/in the absence of chemical substance: 1.1
Yeast gene YDR483W
  level of expressed mRNA in the presence/in the absence of chemical substance: 1.4
Yeast gene YDR497C
  The level of expressed mRNA in the presence of chemical substance/The level of expressed mRNA in the absence of chemical substance: 1.8
Yeast gene YDR502C
  The level of expressed mRNA in the presence of chemical substance/The level of expressed mRNA in the absence of chemical substance: 0.9
Yeast gene YDR516C
  The level of expressed mRNA in the presence of chemical substance/The level of expressed mRNA in the absence of chemical substance: 1.2
Yeast gene YEL063C
  level of expressed mRNA in the presence/in the absence of chemical substance: 0.7
Yeast gene YER015W
  level of expressed mRNA in the presence/in the absence of chemical substance: 2.6
Yeast gene YER026C
  The level of expressed mRNA in the presence of chemical substance/The level of expressed mRNA in the absence of chemical substance: 3.2
Yeast gene YER053C
  The level of expressed mRNA in the presence of chemical substance/The level of expressed mRNA in the absence of chemical substance: 2.3
Yeast gene YER069W
  The level of expressed mRNA in the presence of chemical substance/The level of expressed mRNA in the absence of chemical substance: 0.9
Yeast gene YER081W
  level of expressed mRNA in the presence/in the absence of chemical substance: 1.7
Yeast gene YER096W
  The level of expressed mRNA in the presence of chemical substance/The level of expressed mRNA in the absence of chemical substance: 1.2
Yeast gene YER120W
  level of expressed mRNA in the presence/in the absence of chemical substance: 1.0
Yeast gene YER178W
  The level of expressed mRNA in the presence of chemical substance/The level of expressed mRNA in the absence of chemical substance: 0.9
Yeast gene YFL011W
  level of expressed mRNA in the presence/in the absence of chemical substance: 1.0
Yeast gene YFL014W
  The level of expressed mRNA in the presence of chemical substance/The level of expressed mRNA in the absence of chemical substance: 8.8
Yeast gene YFL030W
  The level of expressed mRNA in the presence of chemical substance/The level of expressed mRNA in the absence of chemical substance: 0.8
Yeast gene YFL031W
  The level of expressed mRNA in the presence of chemical substance/The level of expressed mRNA in the absence of chemical substance: 1.1
Yeast gene YFL056C
  The level of expressed mRNA in the presence of chemical substance/The level of expressed mRNA in the absence of chemical substance: 1.1
Yeast gene YFL057C
  The level of expressed mRNA in the presence of chemical substance/The level of expressed mRNA in the absence of chemical substance: 1.3
